This is an account of results in patent US10806746B2, “Di- and tri-cationic glycosylated antitumor ether lipids, L-gucosylated gaels and rhamnose-linked gaels as cytotoxic agents against epithelial cancer cells and cancer stem cells” (The University of Manitoba, priority 2014, dated 2020).

As usually defined, the CC50 is the concentration at which the toxic effect on the cells reaches its halfway point.

Where two headings read alike, the source gives them in different places. Where only a bound is given, the exact number is not on record here.

Common to all, as to type: cell-based, human
The subject of series [1] is BT-474, JIMT-1, MDA-MB-231 (breast), DU145, PC3 (prostate), MiaPaCa2 (pancreas). Nature of the series: MTS viability, panel of epithelial cancer cell lines (ranges over the cell lines). The protocol:
To determine the effect of compounds 1-10 on the viability of the epithelial cancer cell lines, exponentially growing cells, BT-474, JIMT-1, MDA-MB-231 (breast), DU145, PC3 (prostate), MiaPaCa2 (pancreas) were incubated with varying concentrations of 1-8 (0-30 μM) for 48 h followed by viability assays with the MTS reagent.
(§1) The effects of the GAELs on the viability of the various epithelial cancer cell lines was determined as previously described. Briefly, equal numbers of the cells were dispersed into 96-well plates. After 24 h, the cells were incubated with the compounds (0-30 μM) for 48 h. At the end of the incubation, MTS reagent (20% vol/vol) was added and the plates were incubated for 1-4 h. The OD490 was read with a plate reader. Wells with media but no cells were treated in similar fashion and the values utilized as blank. The results represent the mean±standard deviation of 6 independent determinations.

In series [2] the test system is MDA-MB-231 cells. Nature of the series: MTS viability assay, MDA-MB-231 breast cancer cells. Here is the method:
FIG. 2A. Effects of compounds 1-11 on the viability of MDA-MB231 cells. MDA-MB-231 cells were cultured in DMEM medium supplemented with 10% FBS. Equal numbers were dispersed into 96-well plates. After 24 h, the cells were incubated with compounds 1-11 (0-30 μM) for 48 h. At the end of the incubation, MTS reagent (20% vol/vol) was added and the plates were incubated for 1-4 h. The OD490 was read with a plate reader. Wells with media but no cells were treated in similar fashion and the values utilized as blank. The results represent the mean±standard deviation of 6 independent determinations.
(§2) FIG. 2K. Effects of compounds 1, 69-72 on the viability of MDA-MB-231 cells. MDA-MB-231 cells were cultured in DMEM medium supplemented with 10% FBS. Equal numbers were dispersed into 96-well plates. After 24 h, the cells were incubated with compounds 1, 69-72 for 48 h. At the end of the incubation, MTS reagent (20% vol/vol) was added and the plates were incubated for 1-4 h. The OD490 was read with a plate reader. Wells with media but no cells were treated in similar fashion and the values utilized as blank. The results represent the mean±standard deviation of 6 independent determinations.
(§3) The cell lines were cultured from frozen stocks originally obtained from ATCC. MDA-MB-231, JIMT-1, DU145, U81, U251 cells were grown in DMEM medium. BT474, A2780s, A2780cp cells were grown in DMEM/F12 medium supplemented with 10% FBS. MiaPaCa2 was cultured in DMEM supplemented with 10% FBS and 2.5% horse serum. PC3 cells were cultured in F12K medium supplemented with 10% FBS. All the media were supplemented with penicillin/streptomycin.
as §1
(Tetrazolium assays rely on reduction of a dye to a coloured formazan, in cell work by metabolically active cells.)

The subject of series [3] is BT-474 cells. The experiment in a line: MTS viability assay, BT-474 breast cancer cells. The conditions noted are these: 48 h, MTS. The protocol:
FIG. 2C. Effects of compounds 1-11 on the viability of BT-474 cells. BT-474 cells were cultured in DMEM/F12 medium supplemented with 10% FBS. Equal numbers were dispersed into 96-well plates. After 24 h, the cells were incubated with compounds 1-11 (0-30 μM) for 48 h. At the end of the incubation, MTS reagent (20% vol/vol) was added and the plates were incubated for 1-4 h. The OD490 was read with a plate reader. Wells with media but no cells were treated in similar fashion and the values utilized as blank. The results represent the mean±standard deviation of 6 independent determinations.
as §3, §1

Series [4] has as its system JIMT-1 cells. The experiment in a line: MTS viability assay, JIMT-1 breast cancer cells. The protocol: (§4) FIG. 2B. Effects of compounds 1-11 on the viability of JIMT-1 cells. JIMT-1 cells were cultured in DMEM medium supplemented with 10% FBS. Equal numbers were dispersed into 96-well plates. After 24 h, the cells were incubated with compounds 1-11 (0-30 μM) for 48 h. At the end of the incubation, MTS reagent (20% vol/vol) was added and the plates were incubated for 1-4 h. The OD490 was read with a plate reader. Wells with media but no cells were treated in similar fashion and the values utilized as blank. The results represent the mean±standard deviation of 6 independent determinations.
FIG. 2J. Effects of compounds 1, 69-72 on the viability of JIMT-1 cells. JIMT-1 cells were cultured in DMEM medium supplemented with 10% FBS. Equal numbers were dispersed into 96-well plates. After 24 h, the cells were incubated with compounds 1, 69-72 for 48 h. At the end of the incubation, MTS reagent (20% vol/vol) was added and the plates were incubated for 1-4 h. The OD490 was read with a plate reader. Wells with media but no cells were treated in similar fashion and the values utilized as blank. The results represent the mean±standard deviation of 6 independent determinations.
as §3, §1

In series [5] the test system is MiaPaCa2 cells. Nature of the series: MTS viability assay, MiaPaCa2 pancreas cancer cells. Here is the method:
as §4, with “2F.” for “2B.”, “MiaPaCa2” for “JIMT-1”, “FBS and 2.5% horse serum.” for “FBS.”
as §2, with “2I.” for “2K.”, “MiaPaCa2” for “MDA-MB-231”, “FBS and 2.5% horse serum.” for “FBS.”
as §3, §1

Series [6] relates to DU145 cells. Nature of the series: MTS viability assay, DU145 prostate cancer cells. The protocol: FIG. 2D. Effects of compounds 1-11 on the viability of DU145 cells. DU145 cells were cultured in DMEM medium supplemented with 10% FBS. Equal numbers were dispersed into 96-well plates. After 24 h, the cells were incubated with compounds 1-11 (0-30 μM) for 48 h. At the end of the incubation, MTS reagent (20% vol/vol) was added and the plates were incubated for 1-4 h. The OD490 was read with a plate reader. Wells with media but no cells were treated in similar fashion and the values utilized as blank. The results represent the mean±standard deviation of 6 independent determinations.
FIG. 2H. Effect of compounds 1, 69-72 on the viability of DU145 cells. DU145 cells were cultured in DMEM medium supplemented with 10% FBS. Equal numbers were dispersed into 96-well plates. After 24 h, the cells were incubated with compounds 1, 69-72 for 48 h. At the end of the incubation, MTS reagent (20% vol/vol) was added and the plates were incubated for 1-4 h. The OD490 was read with a plate reader. Wells with media but no cells were treated in similar fashion and the values utilized as blank. The results represent the mean±standard deviation of 6 independent determinations.
as §3, §1

The subject of series [7] is PC3 cells. Nature of the series: MTS viability assay, PC3 prostate cancer cells. As to conditions: 48 h, MTS. The protocol: FIG. 2E. Effects of compounds 1-11 on the viability of PC3 cells. PC3 cells were cultured in F12K medium supplemented with 10% FBS. Equal numbers were dispersed into 96-well plates. After 24 h, the cells were incubated with compounds 1-11 (0-30 μM) for 48 h. At the end of the incubation, MTS reagent (20% vol/vol) was added and the plates were incubated for 1-4 h. The OD490 was read with a plate reader. Wells with media but no cells were treated in similar fashion and the values utilized as blank. The results represent the mean±standard deviation of 6 independent determinations.
as §3, §1

[8] abbreviates: Table 1A, 48 h, read-out: CC50 values MD 231.
Where [9] appears, read: Table 1B, 48 h, read-out: CC90 values MD 231.
Setting [10] is: Table 1B, read-out: CC90 values BT474.
[11] abbreviates: Table 1A, 48 h, read-out: CC50 values JIMT1.
Setting [12] is: Table 1B, 48 h, read-out: CC90 values JIMT1.
[13] abbreviates: Table 1A, 48 h, read-out: CC50 values MiaPaCa2.
[14] abbreviates: Table 1B, 48 h, read-out: CC90 values MiaPaCa2.
Setting [15] is: Table 1A, 48 h, read-out: CC50 values DU 145.
Where [16] appears, read: Table 1B, 48 h, read-out: CC90 values DU 145.
[17] abbreviates: Table 1A, read-out: CC50 values PC3.
Where [18] appears, read: Table 1B, read-out: CC90 values PC3.
The mark [19] stands for this setting: Table 6, 48 h, read-out: MB-MDA-231 CC50.
Where [20] appears, read: Table 6, 48 h, read-out: MB-MDA-231 CC90.
Where [21] appears, read: Table 6, 48 h, read-out: JIMT1 CC50.
[22] abbreviates: Table 6, 48 h, read-out: JIMT1 CC90.
[23] abbreviates: Table 6, 48 h, read-out: MiaPaCa2 CC50.
Setting [24] is: Table 6, 48 h, read-out: MiaPaCa2 CC90.
The mark [25] stands for this setting: Table 6, 48 h, read-out: DU145 CC50.
Setting [26] is: Table 6, 48 h, read-out: DU145 CC90.

Consider `CCCCCCCCCCCCCCCCOC[C@H](CO[C@@H]1O[C@H](CN)[C@@H](O)[C@H](O)[C@H]1N)OC` [Compound 2, 1-O-Hexadecyl-2-O-methyl-3-O-(-2′,6′-diamino-2′,6′-dideoxy-β-D-glucopyranosyl)-sn-glycerol], for which the CC50 in series [1] (range over the cell lines tested, 48 h, read-out: CC50 values, range depending on the cell line) was 4.2 to 11.5 µM; in series [2] (setting [8]) it was 5.5 µM; in series [4] (setting [11]) it was 4.2 µM; in series [5] (setting [13]), 7 µM; in series [6] (setting [15]), 6 µM; in series [7] (setting [17]) it was 11 µM. For the same molecule, the CC90 in series [2] (setting [9]) turned out to be 7 µM; in series [3] (setting [10]), 14 µM; in series [4] (setting [12]), 6.5 µM; in series [5] (setting [14]), 12 µM; in series [6] (setting [16]), 8.5 µM; in series [7] (setting [18]) it was 14 µM.

On to `CCCCCCCCCCCCCCCCOCC(CO[C@@H]1O[C@H](CO)[C@@H](O)[C@H](O)[C@H]1N)NC(=O)CCCCCCCCCCCCCCC` (stereo partly drawn) [Compound 9, 1-O-Hexadecyloxy-2S/R—N-hexadecylacyl-3-(-2′-amino-2′-deoxy-β-D-glucopyranosyl)-glycerol], for which the “activity at the highest concentration tested” value in series [1] (30 μM, all the cell lines tested) is “not active”. Also, the CC50 in series [2] (setting [8]) is over 30 µM; in series [3] (Table 1A, read-out: CC50 values BT474) it was over 30 µM; in series [4] (setting [11]), over 30 µM; in series [5] (setting [13]) it was over 30 µM; in series [6] (setting [15]), over 30 µM; in series [7] (setting [17]), over 30 µM. Also, the CC90 in series [2] (setting [9]), in series [3] (setting [10]), in series [4] (setting [12]), in series [5] (setting [14]), in series [6] (setting [16]) and in series [7] (setting [18]) was over 30 µM throughout.

Consider `CCCCCCCCCCCCCCCCOC[C@H](COC1O[C@H](CNCCCN)[C@@H](O)[C@H](O)[C@H]1N)OC` (stereo partly shown) [Compound 74, 1-O-Hexadecyl-2-O-methyl-3-O-[6′-N-(3-aminopropyl)-2′,6′-diamino-2′,6′-dideoxy-glucopyranoside]-sn-glycerol], for which the CC50 in series [2] (setting [19]) was 13.5 µM; in series [3] (Table 6, read-out: BT474 CC50), over 20 µM; in series [4] (setting [21]) it was 13.5 µM; in series [5] (setting [23]), 18.5 µM; in series [6] (setting [25]), 16.5 µM; in series [7] (Table 6, read-out: PC3 CC50), 12.5 µM. The CC90 in series [2] (setting [20]) was 19.5 µM; in series [3] (Table 6, read-out: BT474 CC90), over 20 µM; in series [4] (setting [22]) it was 18.5 µM; in series [5] (setting [24]), over 20 µM; in series [6] (setting [26]), 20 µM; in series [7] (Table 6, read-out: PC3 CC90), 20 µM.

For `CCCCCCCCCCCCCCCCOC[C@H](COC1O[C@H](CN)[C@@H](O)[C@H](O)[C@H]1NCCCN)OC` (stereo partly shown) [Compound 76, 1-O-Hexadecyl-2-O-methyl-3-O-[2′-N-(3-aminopropyl)-2′,6′-diamino-2′,6′-dideoxy-glucopyranoside]-sn-glycerol], the CC50 in series [2] (setting [19]) is 17.5 µM; in series [3] (Table 6, read-out: BT474 CC50) it was over 20 µM; in series [4] (setting [21]), 12.5 µM; in series [5] (setting [23]) it was 14.5 µM; in series [6] (setting [25]), 18.5 µM; in series [7] (Table 6, read-out: PC3 CC50), 14.5 µM. In addition, the CC90 in series [2] (setting [20]) is over 20 µM; in series [3] (Table 6, read-out: BT474 CC90), over 20 µM; in series [4] (setting [22]) it was 16.5 µM; in series [5] (setting [24]), over 20 µM; in series [6] (setting [26]) it was over 20 µM; in series [7] (Table 6, read-out: PC3 CC90) it was over 20 µM.
